{
  "source": "patent US9139532B2",
  "about": "“Pyrazolyl guanidine F1F0-atpase inhibitors and therapeutic uses thereof” (Lycera Corporation, priority 2010, dated 2015)",
  "key": {"[1]": {"system": "Ramos cells", "test": "Cytotoxicity in Ramos cells", "assay_type": "cell-based", "settings": "cytotoxicity in Ramos cells, read-out: Ramos Cell EC50"}, "[2]": {"biological_target": "T1, F1F0-ATPase (Bos taurus, UniProt P13621)", "T1 construct": "from tissue", "test": "Inhibition of F1F0-ATPase activity in synthesizing ATP", "assay_type": "biochemical", "settings": "inhibition of ATP synthesis by F1F0-ATPase; read-out: ATP Syn IC50"}},
  "note": "Read-outs that look alike come from different tables or passages of the source.",
  "data": [
    {"smiles": "COC[C@H](C)N/C(=N/C(=O)c1ccc(OC)nc1)Nc1cc(-c2ccc(F)cc2)n[nH]1", "note": "[Compound A-493]", "values": [
      {"measurement": "EC50", "setting": "[1]", "result": "< 10", "unit": "µM"},
      {"measurement": "IC50", "setting": "[2]", "result": "< 10", "unit": "µM"}
    ]},
    {"smiles": "Cc1ccc(C(=O)N=C(NCc2ccc(F)cc2Cl)Nc2cc(C(F)(F)F)n[nH]2)cc1", "note": "[Compound A-549]", "values": [
      {"measurement": "EC50", "setting": "[1]; Homo sapiens", "result": "< 10", "unit": "µM"},
      {"measurement": "IC50", "setting": "[2]", "result": "< 10", "unit": "µM"}
    ]},
    {"smiles": "O=C(N=C(Nc1cc(-c2ccc(F)cc2)n[nH]1)NC1CCC1)c1ccc(Cl)cc1", "note": "[Compound A-264]", "values": [
      {"measurement": "EC50", "setting": "[1]; Homo sapiens", "result": "< 10", "unit": "µM"},
      {"measurement": "IC50", "setting": "[2]", "result": "< 10", "unit": "µM"}
    ]},
    {"smiles": "CC(C)(C)N/C(=N/C(=O)c1ccc(F)c(F)c1)Nc1[nH]nc(-c2ccc(Cl)cc2)c1F", "note": "[Compound A-162]", "values": [
      {"measurement": "EC50", "setting": "[1]", "result": "< 10", "unit": "µM"},
      {"measurement": "IC50", "setting": "[2]", "result": "< 10", "unit": "µM"}
    ]},
    {"smiles": "COC[C@H](C)N/C(=N/C(=O)c1ccc(C)c(F)c1)Nc1cc(C(F)(F)F)[nH]n1", "note": "[Compound A-535]", "values": [
      {"measurement": "EC50", "setting": "[1]", "result": "< 10", "unit": "µM"},
      {"measurement": "IC50", "setting": "[2]", "result": "< 10", "unit": "µM"}
    ]},
    {"smiles": "O=C(/N=C(/NCC1CCCCO1)Nc1cc(-c2ccc(F)cc2)n[nH]1)c1ccc(F)cc1", "note": "(centres unmarked) [Compound A-208]", "values": [
      {"measurement": "EC50", "setting": "[1]", "result": "> 10", "unit": "µM"},
      {"measurement": "IC50", "setting": "[2]", "result": "> 10", "unit": "µM"}
    ]},
    {"smiles": "COCC(C)NC(=NC(=O)c1ccc(F)c(F)c1)Nc1cc(-c2ccc(F)cc2)n[nH]1", "note": "(centres unmarked) [Compound A-274]", "values": [
      {"measurement": "EC50", "setting": "[1]", "result": "< 10", "unit": "µM"},
      {"measurement": "IC50", "setting": "[2]", "result": "< 10", "unit": "µM"}
    ]},
    {"smiles": "O=C(N=C(Nc1cc(-c2ccc(Cl)cc2)n[nH]1)NC1CCC1)c1ccc(Cl)c(F)c1", "note": "[Compound A-226]", "values": [
      {"measurement": "EC50", "setting": "[1]; Homo sapiens", "result": "< 10", "unit": "µM"},
      {"measurement": "IC50", "setting": "[2]", "result": "< 10", "unit": "µM"}
    ]},
    {"smiles": "CC(C)N/C(=N/C(=O)c1ccc(Cl)c(F)c1)Nc1cc(-c2ccc(F)cc2)n[nH]1", "note": "[Compound A-216]", "values": [
      {"measurement": "EC50", "setting": "[1]", "result": "< 10", "unit": "µM"},
      {"measurement": "IC50", "setting": "[2]", "result": "< 10", "unit": "µM"}
    ]},
    {"smiles": "COC(=O)Cc1ccc(N/C(=N/C(=O)c2ccc(F)cc2)Nc2cc(C(F)(F)F)n[nH]2)cc1", "note": "[Compound A-173]", "values": [
      {"measurement": "EC50", "setting": "[1]; Homo sapiens", "result": "< 10", "unit": "µM"},
      {"measurement": "IC50", "setting": "[2]", "result": "< 10", "unit": "µM"}
    ]},
    {"smiles": "CC(C)(C)N/C(=N/C(=O)c1cccc(Cl)c1)Nc1cc(-c2ccc(F)cc2)n[nH]1", "note": "[Compound A-451]", "values": [
      {"measurement": "EC50", "setting": "[1]", "result": "< 10", "unit": "µM"},
      {"measurement": "IC50", "setting": "[2]", "result": "< 10", "unit": "µM"}
    ]},
    {"smiles": "CC(C)(C)NC(=NC(=O)c1cccc(O)c1)Nc1cc(-c2ccc(F)cc2)n[nH]1", "note": "[Compound A-525]", "values": [
      {"measurement": "EC50", "setting": "[1]; Homo sapiens", "result": "< 10", "unit": "µM"},
      {"measurement": "IC50", "setting": "[2]", "result": "< 10", "unit": "µM"}
    ]},
    {"smiles": "Cc1cc(N/C(=N\\C(=O)c2ccc(F)c(F)c2)NCC(C)C)n[nH]1", "note": "[Compound A-191]", "values": [
      {"measurement": "EC50", "setting": "[1]", "result": "> 10", "unit": "µM"},
      {"measurement": "IC50", "setting": "[2]", "result": "> 10", "unit": "µM"}
    ]},
    {"smiles": "O=C(/N=C(\\Nc1cc(C(F)(F)F)[nH]n1)NC1CCCC1)c1ccccc1", "note": "[Compound A-545]", "values": [
      {"measurement": "EC50", "setting": "[1]", "result": "< 10", "unit": "µM"},
      {"measurement": "IC50", "setting": "[2]", "result": "< 10", "unit": "µM"}
    ]},
    {"smiles": "CC(C)C(C)N/C(=N/C(=O)c1cccc(C#N)c1)Nc1cc(-c2ccc(Cl)cc2)n[nH]1", "note": "(centres unmarked) [Compound A-304]", "values": [
      {"measurement": "EC50", "setting": "[1]", "result": "< 10", "unit": "µM"},
      {"measurement": "IC50", "setting": "[2]", "result": "< 10", "unit": "µM"}
    ]},
    {"smiles": "O=C(/N=C(/Nc1cc(C(F)(F)F)n[nH]1)NC1CCS(=O)(=O)C1)c1ccc(Cl)cc1", "note": "(centres unmarked) [Compound A-112]", "values": [
      {"measurement": "EC50", "setting": "[1]; Homo sapiens", "result": "> 10", "unit": "µM"},
      {"measurement": "IC50", "setting": "[2]", "result": "< 10", "unit": "µM"}
    ]},
    {"smiles": "CCOCCCN/C(=N/C(=O)c1ccnc(CC)c1)Nc1cc(-c2ccc(F)cc2)[nH]n1", "note": "[Compound A-175]", "values": [
      {"measurement": "EC50", "setting": "[1]", "result": "> 10", "unit": "µM"},
      {"measurement": "IC50", "setting": "[2]", "result": "< 10", "unit": "µM"}
    ]},
    {"smiles": "CCC(C)N/C(=N/C(=O)c1ccc(C(F)(F)F)cc1)Nc1cc(-c2ccc(C)c(F)c2)n[nH]1", "note": "(centres unmarked) [Compound A-334]", "values": [
      {"measurement": "EC50", "setting": "[1]", "result": "< 10", "unit": "µM"},
      {"measurement": "IC50", "setting": "[2]", "result": "< 10", "unit": "µM"}
    ]},
    {"smiles": "O=C(/N=C(/NCc1ccc(F)cc1Cl)Nc1cc(C(F)(F)F)[nH]n1)c1ccc(C(F)F)cc1", "note": "[Compound A-83]", "values": [
      {"measurement": "EC50", "setting": "[1]; Homo sapiens", "result": "< 10", "unit": "µM"},
      {"measurement": "IC50", "setting": "[2]", "result": "< 10", "unit": "µM"}
    ]},
    {"smiles": "COc1cc(C(=O)/N=C(\\Nc2cc(-c3ccc(F)cc3)n[nH]2)NC(C)(C)C)ccn1", "note": "[Compound A-496]", "values": [
      {"measurement": "EC50", "setting": "[1]", "result": "< 10", "unit": "µM"},
      {"measurement": "IC50", "setting": "[2]", "result": "< 10", "unit": "µM"}
    ]},
    {"smiles": "CC1(NC(=NC(=O)c2ccc(F)c(F)c2)Nc2cc(-c3cc(F)cc(Cl)c3)n[nH]2)CCCC1", "note": "[Compound A-288]", "values": [
      {"measurement": "EC50", "setting": "[1]; Homo sapiens", "result": "< 10", "unit": "µM"},
      {"measurement": "IC50", "setting": "[2]", "result": "< 10", "unit": "µM"}
    ]},
    {"smiles": "COc1ccc(C(=O)/N=C(/NCC(C)C)Nc2cc(-c3ccc(F)cc3)n[nH]2)c(F)c1", "note": "[Compound A-372]", "values": [
      {"measurement": "EC50", "setting": "[1]", "result": "> 10", "unit": "µM"},
      {"measurement": "IC50", "setting": "[2]", "result": "< 10", "unit": "µM"}
    ]},
    {"smiles": "CCCCN/C(=N/C(=O)c1ccc(Cl)c(F)c1)Nc1cc(-c2cc(F)cc(F)c2)n[nH]1", "note": "[Compound A-360]", "values": [
      {"measurement": "EC50", "setting": "[1]", "result": "< 10", "unit": "µM"},
      {"measurement": "IC50", "setting": "[2]", "result": "< 10", "unit": "µM"}
    ]},
    {"smiles": "C[C@H](N/C(=N/C(=O)c1ccc(F)c(F)c1)Nc1cc(C(F)(F)F)[nH]n1)c1ccc(Cl)cc1", "note": "[Compound A-47]", "values": [
      {"measurement": "EC50", "setting": "[1]; Homo sapiens", "result": "< 10", "unit": "µM"},
      {"measurement": "IC50", "setting": "[2]", "result": "< 10", "unit": "µM"}
    ]},
    {"smiles": "CC(C)(C)c1cc(NC(=NC(=O)c2ccc(Cl)c(F)c2)Nc2cc(-c3cc(F)cc(F)c3)n[nH]2)no1", "note": "[Compound A-345]", "values": [
      {"measurement": "EC50", "setting": "[1]; Homo sapiens", "result": "> 10", "unit": "µM"},
      {"measurement": "IC50", "setting": "[2]", "result": "> 10", "unit": "µM"}
    ]}
  ]
}
